Data reported in PubChem BioAssay (NCI).
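Cells were grown in 96-well plates and exposed to each compound for 48 hours at five concentrations; endpoints were interpolated linearly between bracketing concentrations, or set to the highest concentration if not reached. GI50: concentration for 50% inhibition of growth. TGI is the concentration that stops growth completely.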

Tests used:
Assay in all cases: growth of human tumour cells (NCI), 48 h
[1] = tested on: NCI-H226 lung
[2] = tested on: NCI-H23 lung
[3] = tested on: NCI-H460 lung
[4] = tested on: NCI-H522 lung
[5] = tested on: NCI/ADR-RES ovarian
[6] = tested on: OVCAR-3 ovarian
[7] = tested on: OVCAR-4 ovarian
[8] = tested on: OVCAR-5 ovarian
[9] = tested on: OVCAR-8 ovarian
[10] = tested on: PC-3 prostate
[11] = tested on: RPMI-8226 leukemia
[12] = tested on: RXF 393 renal
[13] = tested on: SF-268 CNS
[14] = tested on: SF-295 CNS
[15] = tested on: SF-539 CNS
[16] = tested on: SK-MEL-2 melanoma
[17] = tested on: SK-MEL-28 melanoma
[18] = tested on: SK-MEL-5 melanoma
[19] = tested on: SK-OV-3 ovarian
[20] = tested on: SN12C renal
[21] = tested on: SNB-19 CNS
[22] = tested on: SNB-75 CNS
[23] = tested on: SW-620 colon
[24] = tested on: T-47D breast
[25] = tested on: TK-10 renal
[26] = tested on: U251 CNS
[27] = tested on: UACC-257 melanoma
[28] = tested on: UACC-62 melanoma
[29] = tested on: UO-31 renal

COC(=O)C[C@](O)(CCCC(C)C)C(=O)O[C@H]1C(OC)=C[C@@]23CCCN2CCc2cc4c(cc2[C@@H]13)OCO4
GI50 [1]: 0.94 µM
TGI [1]: 7.23 µM
GI50 [2]: 1.35 µM
TGI [2]: 6.66 µM
GI50 [3]: 0.695 µM
TGI [3]: 4.78 µM
GI50 [4]: 1.03 µM
TGI [4]: 2.97 µM
GI50 [5]: 2.55 µM
TGI [5]: 19 µM
GI50 [6]: 1.13 µM
TGI [6]: 8.52 µM
GI50 [7]: 1.64 µM
TGI [7]: 17 µM
GI50 [8]: 2.56 µM
TGI [8]: 15.4 µM
GI50 [9]: 1.79 µM
TGI [9]: 19.7 µM
GI50 [10]: 1.38 µM
TGI [10]: 14.6 µM
GI50 [11]: 1.05 µM
TGI [11]: 2.99 µM
GI50 [12]: 0.641 µM
TGI [12]: 2.18 µM
GI50 [13]: 5.01 µM
TGI [13]: 22.8 µM
GI50 [14]: 1.49 µM
TGI [14]: 11.6 µM
GI50 [15]: 0.838 µM
TGI [15]: 2.24 µM
GI50 [16]: 3.96 µM
TGI [16]: 12.7 µM
GI50 [17]: 1.29 µM
TGI [17]: 8.71 µM
GI50 [18]: 0.823 µM
TGI [18]: 2.45 µM
GI50 [19]: 1.62 µM
TGI [19]: 38.2 µM
GI50 [20]: 3.62 µM
TGI [20]: 23.2 µM
GI50 [21]: 0.917 µM
TGI [21]: 6.24 µM
GI50 [22]: 1.97 µM
TGI [22]: 13.9 µM
GI50 [23]: 1.49 µM
TGI [23]: 32.5 µM
GI50 [24]: 1.62 µM
TGI [24]: 31.8 µM
GI50 [25]: 4.12 µM
TGI [25]: 27.3 µM
GI50 [26]: 1.21 µM
TGI [26]: 11.8 µM
GI50 [27]: 2.16 µM
TGI [27]: 15.6 µM
GI50 [28]: 3.15 µM
TGI [28]: 16.6 µM
GI50 [29]: 1.07 µM
TGI [29]: 11.2 µM
